Measurements as given in patent US20090246134A1, “COMPOSITIONS AND METHODS FOR MODULATING GATED ION CHANNELS” (PainCeptor Pharma Corporation, priority 2007, published 2009).

Tests used:
[1] = test system: native sensory-neuron gated ion channels; assay: Patch-clamp electrophysiology of sensory neurons in primary culture; assay type: cell-based, rat; conditions: n=3
Source text: This example describes another in vitro assessment of the inhibitory activity of the compounds of the present invention utilizing patch-clamp electrophysiology of sensory neurons in primary culture.
Sensory neurons can be isolated and cultured in vitro from different animal species. The most widely used protocols use sensory neurons isolated from neonatal (Eckert, et al. (1997) J Neurosci Methods 77:183-190) and embryonic (Vasko, et al. (1994) J Neurosci 14:4987-4997) rat. […] Electrophysiology is performed similarly as described above in Example 2. In the voltage-clamp mode, trans-membrane currents are recorded. Compounds A and H at 1 μM inhibit the pH 6.5-induced inward current. In the current-clamp mode, change in the trans-membrane potential are recorded. Under acidic conditions (e.g., pH 6.5) the membrane depolarizes, leading to the firing of action potentials. Compounds A and H at 1 μM inhibit the acid-induced membrane depolarization and reduce the ensuing rate of action potential firing.

[2] = test system: formalin-induced pain in Sprague-Dawley rats; assay: Formalin model of acute tonic pain; assay type: in vivo, rat
Method: Male Sprague-Dawley rats are housed together in groups of three animals under standard conditions with unrestricted access to food and water. All experiments are conducted according to the ethical guidelines for investigations of experimental pain in conscious animals (Zimmerman, 1983)
Assessment of formalin-induced flinching behavior in normal, uninjured rats (body weight 150-180 g) was made with the use of an Automated Nociception Analyser (University of California, San Diego, USA). Briefly, this involved placing a small C-shaped metal band (10 mm wide×27 mm long) on the hindpaw of the rat to be tested. The rats (four rats were included in each testing session) were then placed in a cylindrical plexiglass observation chamber (diameter 30.5 cm and height 15 cm) for 20 min for adaptation purposes prior to being administered drug or vehicle according to the experimental paradigm being followed. After adaptation, individual rats were then gently restrained and formalin (5% in saline, 50 μl, s.c.) was injected into the plantar surface of the hindpaw using a 27 G needle. Rats were then returned to their separate observation chambers, each of which were in turn situated upon an enclosed detection device consisting of two electromagnetic coils designed to produce an electromagnetic field in which movement of the metal band could be detected. The analogue signal was then digitised and a software algorithm (LabView) applied to enable discrimination of flinching behaviour from other paw movements. A sampling interval of 1 min was used and on the basis of the resulting response patterns 5 phases of nociceptive behaviour were identified and scored: first phase (P1; 0-5 min), interphase (Int; 6-15 min), second phase (P2; […]), phase 2A (P2A; 16-40 min) and phase 2B (P2B; 41-60 min).
Nociceptive behavior was also determined manually every 5 min by measuring the amount of time spent in each of four behavioral categories: 0, treatment of the injected hindpaw is indistinguishable from that of the contralateral paw; 1, the injected paw has little or no weight placed on it; 2, the injected paw is elevated and is not in contact with any surface; 3, the injected paw is licked, bitten, or shaken. A weighted nociceptive score, ranging from 0 to 3 was calculated by multiplying the time spent in each category by the category weight, summing these products, and dividing by the total time for each 5 min block of time. (Coderre et al., Pain 1993; 54: 43). On the basis of the resulting response patterns, 2 phases of nociceptive behavior were identified and scored: first phase (P1; 0-5 min), interphase (Int; 6-15 min), second phase (P2; […]), phase 2A (P2A; 16-40 min) and phase 2B (P2B; 41-60 min).
Statistical analysis was performed using Prism™ 4.01 software package (GraphPad, San Diego, Calif., USA). The difference in response levels between treatment groups and control vehicle group was analyzed using an ANOVA followed by Bonferroni's method for post-hoc pair-wise comparisons. A p value<0.05 was considered to be significant
The effect of Compound A on pain induced by intraplantar formalin injection was investigated. Compound A was administered i.p. 30 min. before the formalin. Compound A was able to reduce the total pain score behavior (flinching, licking, biting) in phase 1 and 2 of the formalin test.

[3] = i.p. 30 min before formalin, n=6-8

relationship between dose and plasma exposure ([2]; formalin experiments, i.p.): linear relationship
SMILES: COc1ccc(F)cc1-c1cc2c(c3c1CCN(C)C3)NC(=O)C2=NO [Compound A, 5-(5-fluoro-2-methoxyphenyl)-6,7,8,9-tetrahydro-3-(hydroxyimino)-8-methyl-1H-pyrrolo[3,2-h]isoquinoline-2(3H)-one]
acid-induced membrane depolarization ([1]; current-clamp mode, 1 μM): inhibit
rate of action potential firing ([1]; current-clamp mode, acidic conditions, 1 μM): reduce
activity of native sensory-neuron gated ion channels [1]: effectively modulate
pH 6.5-induced inward current ([1]; voltage-clamp mode, 1 μM): inhibit
ED50 ([2]; Rattus norvegicus, ip, i.p. 30 min before formalin, read-out: ED50, Phase 2 of the total pain score): ~12 mg/kg
effects on phases 1 and 2, specific pain behaviors (licking and biting) only [2, 3]: quite pronounced
total pain score behavior (flinching, licking, biting) in phase 1 and 2 of the formalin test [2, 3]: reduce
acute tonic pain induced by formalin injection in the paw ([2]; rat, in vivo): block
